Reference: patent US20160115540A1, “PRODRUGS AND DRUGS” (Biogen MA Inc., priority 2013, published 2016)
Where a name gives a salt, the structure may show the parent alone.

Test system: cerebellum
Test: Transcriptional profiling on Affymetrix GeneChips, single dose, naïve mice: cerebellum
Assay type: in vivo, C57BL/6 mice
Conditions: for Number of differentially expressed genes identified: Cerebellum: Naïve, Single Dose
Description: In vivo, DMF is rapidly metabolized to monomethyl fumarate (MMF).
Animals were exposed to CO2 and whole blood collected via cardiac puncture. Two 100 μl aliquots of whole blood were collected in 1.5 mL microcentrifuge tubes and snap frozen in liquid nitrogen. Peripheral (liver, spleen, kidney and jejunum) and CNS brain (cerebellum, hippocampus, striatum and cortex) tissues were harvested and snap frozen in liquid nitrogen, with special care taken to collect tissues of similar size and from the same location. All samples were stored at −80° C. until RNA extraction was conducted.
For RNA preparation, frozen tissues were placed in 2 mL RNAse-free 96-well blocks with 1.5 mL QIAzol Lysis Reagent (QIAgen) and a 3.2 mm stainless steel bead (BioSpec Products, Bartlesville, Okla.). Tissues were disrupted for four cycles of 45 seconds in a Mini-Beadbeater (Biospec Products). RNA was extracted in chloroform and the aqueous phase was mixed with an equal volume of 70% ethanol. Extracted RNA was applied to RNeasy 96 plates and purified by the spin method according to the manufacturer's protocol (RNeasy 96 Universal Tissue Protocol, QIAgen, Hilden Germany).
Automated sample amplifications and biotin labelings were carried out using the NuGEN Ovation RNA Amplification system V2 (Cat #3100), Ovation WB reagent (Cat #1300) and Encore Biotin module (Cat #4200) (NuGEN Technologies, Inc, San Carlos, Calif.) according to manufacturer's recommendations using an Arrayplex automated liquid handler (Beckman Coulter, Indianapolis, Ind.). Two micrograms of biotin labeled sscDNA probe were hybridized to Affymetrix GeneChip Affymetrix HT_MG-430_PM plate arrays with modified conditions as described in Allaire et al. Washing and staining of the hybridized arrays were completed as described in the GeneChip Expression analysis technical manual for HT plate arrays using the Genechip® Array Station (Affymetrix, Santa Clara, Calif.) with modifications as described in Allaire et al. The processed GeneChip® plate arrays were scanned using GeneTitan scanner (Affymetrix, Santa Clara, Calif.).
Affymetrix scans were subject to quality control (QC) measures. These tests included a visual inspection of the distribution of raw signal intensities and an assessment of RNA degradation, relative log expression (RLE), and normalized unsealed standard error (NUSE). All sample scans that passed these QC metrics were included in the analysis.
All CEL files were subjected to GC-content-based Robust Multi-array Average (GCRMA) normalization (version 2.20.0) (Irizarry R A, et al. Nucleic Acids Res 2003; 31:e15; Li C, et al. Genome Biol 2001; 2:[…]0032). Expression levels were log (base 2) transformed.
All calculations and analyses were carried out using R (version 2.11.1) and Bioconductor computational tools (Gentleman R. Springer Science+Business Media 2005).

[1] = 100 mpk, vs Vehicle, 2 h after last dosing
[2] = 100 mpk, vs Vehicle, 7 h after last dosing
[3] = 100 mpk, vs Vehicle, 12 h after last dosing
[4] = cerebellum, 100MMF-vs-Veh, 12 h

Compound: COC(=O)/C=C/C(=O)OC [DMF, dimethyl fumarate]
- Number of differentially expressed genes identified: Cerebellum (100 mpk DMF-vs-100 mpk MMF, 2 h after last dosing): 0
- Number of differentially expressed genes identified: Cerebellum (100 mpk DMF-vs-100 mpk MMF, 7 h after last dosing): 0
- Number of differentially expressed genes identified: Cerebellum (100 mpk DMF-vs-100 mpk MMF, 12 h after last dosing): 0
- Number of differentially expressed genes identified: Cerebellum [1]: 0
- Number of differentially expressed genes identified: Cerebellum [2]: 0
- Number of differentially expressed genes identified: Cerebellum [3]: 0
- differentially expressed genes (cerebellum, 100DMF-vs-100MMF, 2 h): None
- differentially expressed genes (cerebellum, 100DMF-vs-100MMF, 7 h): None
- differentially expressed genes (cerebellum, 100DMF-vs-100MMF, 12 h): None
- differentially expressed genes (cerebellum, 100DMF-vs-Veh, 2 h): None
- differentially expressed genes (cerebellum, 100DMF-vs-Veh, 7 h): None
- differentially expressed genes (cerebellum, 100DMF-vs-Veh, 12 h): None

Compound: COC(=O)/C=C/C(=O)O [MMF, monomethyl fumarate]
- Number of differentially expressed genes identified: Cerebellum [1]: 2
- Number of differentially expressed genes identified: Cerebellum [2]: 0
- Number of differentially expressed genes identified: Cerebellum [3]: 3
- FC Csnk2a1 (1419034_PM_at) (cerebellum, 100MMF-vs-Veh, 2 h): −1.65
- FC Trak2 (1429607_PM_at) (cerebellum, 100MMF-vs-Veh, 2 h): −1.55
- FC Hif3a (1425428_PM_at) [4]: 1.58
- FC Pnpla7 (1451361_PM_a_at) [4]: 1.52
- FC Vnn1 (1447845_PM_s_at) [4]: 1.83
